Laboratory results published in patent publication US6579902B1, “Ribose-substituted aromatic amides, method for the production and use thereof as medicaments” (Aventis Pharma S.A., priority 1999, dated 2003).
≈ marks a conversion by molar mass, not a printed value.

Tests used:
Format in all cases: cell-based
Entero faecalis 02D2UC5 = test: MIC, method of dilutions in a liquid medium; conditions: incubation 24 hours at 37° C.
Description: (§1) A—Method of Dilutions in a Liquid Medium
(§2) A series of tubes was prepared in which the same quantity of sterile nutritive medium is distributed. Increasing quantities of the product to be studied are distributed in each tube, then each tube is seeded with a bacterial strain. After incubation for 24 hours in an oven at 37° C., the growth inhibition is evaluated by transillumination which allows the minimum inhibitory concentrations (M.I.C) to be determined, expressed in micrograms/cm^3.

Entero faecium 02D3IP2 = test: MIC, method of dilutions in a liquid medium; conditions: incubation 24 hours at 37° C.
Description: as §1, §2

[1] = system: Staph. Coag. Negative 012HT5; test: MIC, method of dilutions in a liquid medium; conditions: incubation 24 hours at 37° C.
Description: as §1, §2

Staph. aureus 011HT18 = test: MIC, method of dilutions in a liquid medium; conditions: incubation 24 hours at 37° C.
Description: as §1, §2

[2] = system: Staph. epidermidis 0126042; test: MIC, method of dilutions in a liquid medium; conditions: incubation 24 hours at 37° C.
Description: as §1, §2

[3] = system: Strepto pneumoniae 030BI2; test: MIC, method of dilutions in a liquid medium; conditions: incubation 24 hours at 37° C.
Description: as §1, §2

Strepto. pyogene 02A1UC1 = test: MIC, method of dilutions in a liquid medium; conditions: incubation 24 hours at 37° C.
Description: as §1, §2

bacterial strain = test: Activity in vitro, method of dilutions in a liquid medium (overall statement); conditions: summary of the MIC test on the listed strains
Description: as §1, §2

Structure (SMILES) | MIC (Entero faecalis 02D2UC5) | MIC (Entero faecium 02D3IP2) | MIC [1] | MIC (Staph. aureus 011HT18) | MIC [2] | MIC [3] | MIC (Strepto. pyogene 02A1UC1) | activity in vitro (in words) (bacterial strain)
C#CCONC(=O)OC1C(O)C(c2ccc3c(O)c(NC(=O)c4ccccc4)c(=O)oc3c2C)OC2(CCCC2)C1OC (stereo not drawn) [EX. 10, [7R-(7.α.,8.β,9.β,10.α)]-(2-Propynyloxy)-carbamate of 8-Hydroxy-7-[4-hydroxy-8-methyl-2-oxo-3-(benzoylamino)-2H-1-benzopyran-7-yl)-10-methoxy-6-oxaspiro[4,5]decan-9-yl] | 1.2 mg/L (≈ 2.02 µM) | 0.63 mg/L (≈ 1.06 µM) | 0.08 mg/L (≈ 0.135 µM) | ≦0.04 μg/ml | ≦0.04 μg/ml | ≦0.04 μg/ml | 0.16 mg/L (≈ 0.27 µM) | excellent activity
C#CCONC(=O)OC1CC(c2ccc3c(O)c(NC(=O)C(C)C)c(=O)oc3c2C)OC2(CCCC2)C1OC (stereo not drawn) [EX. 11, [7R-(7.α.,8β.,9β.,10.α)]-(2-Propynyloxy)-carbamate of 7-[4-Hydroxy-8-methyl-3-[(2-methyl-1-oxo-propyl)amino]-2-oxo-2H-1-benzopyran-7-yl]-10-methoxy-6-oxaspiro[4,5]decan-9-yl] | 0.63 mg/L (≈ 1.16 µM) | 0.32 mg/L (≈ 0.59 µM) | 0.15 mg/L (≈ 0.276 µM) | ≦0.04 μg/ml | ≦0.04 μg/ml | ≦0.04 μg/ml | 0.08 mg/L (≈ 0.147 µM) | excellent activity
